Article PMC9737838, “Long-Distance Protonation-Conformation Coupling in Phytochrome Species” (Molecules, 2022)

Molecular target: T1, Agp1-PGP (photosensory module PAS-GAF-PHY of Agp1) (Agrobacterium fabrum, UniProt Q7CY45)
T1 construct: gene Atu1990; photosensory module PAS-GAF-PHY, residues 1-504, C-terminal His6 tag; apoprotein from E. coli assembled with biliverdin; plasmids with and without deletion of the first 9 residues used for mutagenesis
T1 sequence (Q7CY45 1-495): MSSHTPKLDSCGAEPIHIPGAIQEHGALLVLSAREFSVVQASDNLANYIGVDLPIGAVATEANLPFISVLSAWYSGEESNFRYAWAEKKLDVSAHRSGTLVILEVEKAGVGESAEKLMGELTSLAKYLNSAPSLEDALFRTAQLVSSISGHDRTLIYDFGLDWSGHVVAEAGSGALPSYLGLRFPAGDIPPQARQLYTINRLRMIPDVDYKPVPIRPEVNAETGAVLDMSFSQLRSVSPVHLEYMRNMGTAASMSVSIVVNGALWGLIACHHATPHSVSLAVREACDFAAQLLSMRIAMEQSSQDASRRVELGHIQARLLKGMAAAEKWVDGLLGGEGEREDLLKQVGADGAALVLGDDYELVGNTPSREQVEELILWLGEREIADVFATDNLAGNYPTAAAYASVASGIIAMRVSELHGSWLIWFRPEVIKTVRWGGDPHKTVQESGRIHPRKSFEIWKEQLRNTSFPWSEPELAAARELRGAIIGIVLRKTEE
Experiment: UV-Vis absorption of the assembled holoprotein, pH titration
Assay type: binding
Conditions: covalent, Cys20; Pr state, 702 nm band, 300 mM NaCl, 50 mM Tris, 20 °C

## C=CC1=C(C)/C(=C/C2=NC(=C\c3[nH]c(/C=C4\NC(=O)C(C)=C4C=C)c(C)c3CCC(=O)O)/C(CCC(=O)O)=C2C)NC1=O [BV, biliverdin]
  UV-Vis absorption of the assembled holoprotein, pH titration: The apoprotein was expressed and assembled with BV according to established protocols
